# According to patent US20200131180A1, “POSITIVE ALLOSTERIC MODULATORS OF THE MUSCARINIC ACETYLCHOLINE RECEPTOR M1” (Vanderbilt University, priority 2018, published 2020):
# Target: T1, human mAChR M1 (Homo sapiens, UniProt P11229)
# T1 sequence (P11229 1-460): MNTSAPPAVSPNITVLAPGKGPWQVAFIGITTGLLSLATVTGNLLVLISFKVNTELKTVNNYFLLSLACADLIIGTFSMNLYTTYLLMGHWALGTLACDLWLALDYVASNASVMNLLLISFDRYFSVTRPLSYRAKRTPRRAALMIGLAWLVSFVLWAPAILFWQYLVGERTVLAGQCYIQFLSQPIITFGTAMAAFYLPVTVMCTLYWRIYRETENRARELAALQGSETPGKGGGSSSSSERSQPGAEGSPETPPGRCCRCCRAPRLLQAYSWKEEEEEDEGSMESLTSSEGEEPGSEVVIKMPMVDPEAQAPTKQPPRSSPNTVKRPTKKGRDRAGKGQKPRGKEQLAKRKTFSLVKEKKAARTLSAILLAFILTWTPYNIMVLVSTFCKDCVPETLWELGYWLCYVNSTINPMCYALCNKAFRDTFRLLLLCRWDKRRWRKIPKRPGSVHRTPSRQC
# Assay: mAChR M1 cell-based functional assay (calcium mobilization, PAM activity)
# Settings: CHO-K1 cells expressing hM1, calcium flux (Fluo-4); for EC50: concentration-dependent increase in the EC20 acetylcholine response; for Emax: potentiation of EC20 acetylcholine response
# Text: Chinese hamster ovary (CHO-K1) cells stably expressing rat (r)M1 were purchased from the American Type Culture Collection and cultured according to their indicated protocol. CHO cells stably expressing human (h)M2, hM3, and hM5 were described previously (Levey, et al., 1991); hM1 and hM4 cDNAs were purchased from Missouri S&T cDNA Resource; rM4 cDNA was provided by T. I. Bonner (National Institutes of Health, Bethesda, Md.). rM2 and rM3 were cloned from a rat brain cDNA library and sequence verified. hM1, rM2, rM3, hM4, and rM4 cDNAs were used to stably transfect CHO-K1 cells purchased from the American Type Culture Collection using Lipofectamine 2000. To make stable rM2, hM2, rM3, hM4, and rM4 cell lines for use in calcium mobilization assays, these cells also were stably transfected with a chimeric G-protein (Gqi5) (provided by B. R. Conklin, University of California, San Francisco) using Lipofectamine 2000. rM1, hM1, rM3, hM3, rM5, and hM5 cells were grown in Ham's F-12 medium containing 10% heat-inactivated fetal bovine serum (FBS), 20 mM HEPES, and 50 μg/mL G418 sulfate. rM2-Gqi5, hM2-Gqi5, and hM4-Gqi5 cells were grown in the same medium also containing 500 μg/mL Hygromycin B. Stable rM4-Gqi5 cells were grown in DMEM containing 10% heat-inactivated FBS, 20 mM HEPES, 400 μg/mL G418 sulfate, and 500 μg/mL Hygromycin B.
# For high throughput measurement of agonist-evoked increases in intracellular calcium, CHO-K1 cells stably expressing muscarinic receptors were plated in growth medium lacking G418 and hygromycin at 15,000 cells/20 μL/well in Greiner 384-well black-walled, tissue culture (TC)-treated, clear-bottom plates (VWR). Cells were incubated overnight at 37° C. and 5% CO2. The next day, cells were washed using an ELX 405 (BioTek) with four washes (80 μL) of assay buffer then aspirated to 20 μL. Next, 20 μL of 16 μM Fluo-4/acetoxymethyl ester (Invitrogen, Carlsbad, Calif.) prepared as a 2.3 mM stock in DMSO and mixed in a 1:1 ratio with 10% (w/v) Pluronic F-127 and diluted in assay buffer was added to the wells and the cell plates were incubated for 50 min at 37° C. and 5% CO2. Dye was removed by washing with the ELX 405 (four 80 μL washes of assay buffer) then aspirated to 20 μL. Compound master plates were formatted in an 11 point CRC format (1:3 dilutions) in 100% DMSO with a starting concentration of 10 mM using the BRAVO liquid handler (Agilent). Test compound CRCs were then transferred to daughter plates (240 nL) using the Echo acoustic plate reformatter (Labcyte, Sunnyvale, Calif.) and then diluted into assay buffer (40 μL) to a 2× stock using a Thermo Fisher Combi (Thermo Fisher Scientific, Waltham, Mass.).
# Calcium flux was measured using the Functional Drug Screening System (FDSS) 6000 (Hamamatsu Corporation, Tokyo, Japan) as an increase in the fluorescent static ratio. Compounds were applied to cells (20 μL, 2×) using the automated system of the FDSS 6000 at 4 s into the 300 s protocol and the data were collected at 1 Hz. At 144 s into the 300s protocol, 10 μL of an EC20 concentration of the muscarinic receptor agonist acetylcholine was added (5×), followed by the addition of 12 μL an EC80 concentration of acetylcholine at the 230 s time point (5×). Agonist activity was analyzed as a concentration-dependent increase in calcium mobilization upon compound addition. Emax values for agonist activity are expressed relative to the maximum for acetylcholine. Positive allosteric modulator activity was analyzed as a concentration-dependent increase in the EC20 acetylcholine response. Antagonist activity was analyzed as a concentration-dependent decrease in the EC80 acetylcholine response. Concentration-response curves were generated using a four-parameter logistical equation in XLfit curve fitting software (IDBS, Bridgewater, N.J.) for Excel (Microsoft, Redmond, Wash.) or Prism (GraphPad Software, Inc., San Diego, Calif.). […]
EC50,Emax,SMILES
2.24 µM,43%,"Cc1cn2cc(Cc3ccc(-c4ccn(C)n4)cc3)cc(C(=O)N[C@H]3CCOC[C@@H]3O)c2n1 [compound 21, N-[(3R,4S)-3-hydroxytetrahydropyran-4-yl]-2-methyl-6-[[4-(1-methylpyrazol-3-yl)phenyl]methyl]imidazo[1,2-a]pyridine-8-carboxamide]"
0.61 µM,84%,"O=C(N[C@H]1CCCC[C@@H]1O)c1cc(Cc2ccc(-n3cccn3)cc2)cn2ccnc12 [compound 22, N-[(1S,2S)-2-hydroxycyclohexyl]-6-[(4-pyrazol-1-ylphenyl)methyl]imidazo[1,2-a]pyridine-8-carboxamide]"
0.341 µM,82%,"O=C(N[C@H]1CCOC[C@@H]1O)c1cc(Cc2ccc(-n3cccn3)cc2)cn2ccnc12 [compound 23, N-[(3R,4S)-3-hydroxytetrahydropyran-4-yl]-6-[(4-pyrazol-1-ylphenyl)methyl]imidazo[1,2-a]pyridine-8-carboxamide]"
2.14 µM,76%,"O=C(N[C@H]1CCC[C@@H]1O)c1cc(Cc2ccc(-n3cccn3)cc2)cn2ccnc12 [compound 24, N-[(1S,2S)-2-hydroxycyclopentyl]-6-[(4-pyrazol-1-ylphenyl)methyl]imidazo[1,2-a]pyridine-8-carboxamide]"
0.904 µM,83%,"Cn1ccc(-c2ccc(Cc3cc(C(=O)N[C@H]4CCCC[C@@H]4O)c4nccn4c3)cn2)n1 [compound 25, N-[(1S,2S)-2-hydroxycyclohexyl]-6-[[6-(1-methylpyrazol-3-yl)-3-pyridyl]methyl]imidazo[1,2-a]pyridine-8-carboxamide]"
4.35 µM,79%,"Cn1ccc(-c2ccc(Cc3cc(C(=O)N[C@H]4CCOC[C@@H]4O)c4nccn4c3)cn2)n1 [compound 26, N-[(3R,4S)-3-hydroxytetrahydropyran-4-yl]-6-[[6-(1-methylpyrazol-3-yl)-3-pyridyl]methyl]imidazo[1,2-a]pyridine-8-carboxamide]"
7.98 µM,78%,"Cn1ccc(-c2ccc(Cc3cc(C(=O)N[C@H]4CCOC[C@@H]4O)c4ncnn4c3)cn2)n1 [compound 27, N-[(3R,4S)-3-hydroxytetrahydropyran-4-yl]-6-[[6-(1-methylpyrazol-3-yl)-3-pyridyl]methyl]-[1,2,4]triazolo[1,5-a]pyridine-8-carboxamide]"
1.12 µM,85%,"Cn1cc(-c2ccc(Cc3cc(C(=O)N[C@H]4CCOC[C@@H]4O)c4ncnn4c3)cc2)cn1 [compound 28, N-[(3R,4S)-3-hydroxytetrahydropyran-4-yl]-6-[[4-(1-methylpyrazol-4-yl)phenyl]methyl]-[1,2,4]triazolo[1,5-a]pyridine-8-carboxamide]"
2.55 µM,82%,"Cc1nc(-c2ccc(Cc3cc(C(=O)N[C@H]4CCOC[C@@H]4O)c4ncnn4c3)cc2)co1 [compound 29, N-[(3R,4S)-3-hydroxytetrahydropyran-4-yl]-6-[[4-(2-methyloxazol-4-yl)phenyl]methyl]-[1,2,4]triazolo[1,5-a]pyridine-8-carboxamide]"
1.27 µM,85%,"O=C(N[C@H]1CCOC[C@@H]1O)c1cc(Cc2ccc(-n3cccn3)cc2)cn2ncnc12 [compound 30, N-[(3R,4S)-3-hydroxytetrahydropyran-4-yl]-6-[(4-pyrazol-1-ylphenyl)methyl]-[1,2,4]triazolo[1,5-a]pyridine-8-carboxamide]"
0.739 µM,89%,"Cn1cc(-c2ccc(Cc3cc(C(=O)N[C@H]4CCCC[C@@H]4O)c4ncnn4c3)cc2)cn1 [compound 31, N-[(1S,2S)-2-hydroxycyclohexyl]-6-[[4-(1-methylpyrazol-4-yl)phenyl]methyl]-[1,2,4]triazolo[1,5-a]pyridine-8-carboxamide]"
1.43 µM,87%,"Cc1nc(-c2ccc(Cc3cc(C(=O)N[C@H]4CCCC[C@@H]4O)c4ncnn4c3)cc2)co1 [compound 32, N-[(1S,2S)-2-hydroxycyclohexyl]-6-[[4-(2-methyloxazol-4-yl)phenyl]methyl]-[1,2,4]triazolo[1,5-a]pyridine-8-carboxamide]"
0.604 µM,87%,"O=C(N[C@H]1CCCC[C@@H]1O)c1cc(Cc2ccc(-n3cccn3)cc2)cn2ncnc12 [compound 33, N-[(1S,2S)-2-hydroxycyclohexyl]-6-[(4-pyrazol-1-ylphenyl)methyl]-[1,2,4]triazolo[1,5-a]pyridine-8-carboxamide]"
3.69 µM,35%,"Cn1cc(-c2ccc(Cc3cc(C(=O)NC4CCOCC4)c4ncnn4c3)cc2)cn1 [compound 34, 6-[[4-(1-methylpyrazol-4-yl)phenyl]methyl]-N-tetrahydropyran-4-yl-[1,2,4]triazolo[1,5-a]pyridine-8-carboxamide]"
9.36 µM,31%,"Cc1nc(-c2ccc(Cc3cc(C(=O)NC4CCOCC4)c4ncnn4c3)cc2)co1 [compound 35, 6-[[4-(2-methyloxazol-4-yl)phenyl]methyl]-N-tetrahydropyran-4-yl-[1,2,4]triazolo[1,5-a]pyridine-8-carboxamide]"
,47%,"O=C(NC1CCOCC1)c1cc(Cc2ccc(-n3cccn3)cc2)cn2ncnc12 [compound 36, 6-[(4-pyrazol-1-ylphenyl)methyl]-N-tetrahydropyran-4-yl-[1,2,4]triazolo[1,5-a]pyridine-8-carboxamide]"
3.54 µM,83%,"Cn1ccc(-c2ccc(Cc3cc(C(=O)N[C@H]4CCCC[C@@H]4O)c4ncnn4c3)cn2)n1 [compound 37, N-[(1S,2S)-2-hydroxycyclohexyl]-6-[[6-(1-methylpyrazol-3-yl)-3-pyridyl]methyl]-[1,2,4]triazolo[1,5-a]pyridine-8-carboxamide]"
0.507 µM,69%,"Cn1ccc(-c2cc(F)c(Cc3cc(C(=O)N[C@H]4CCOC[C@@H]4O)c4nccn4c3)c(F)c2)n1 [compound 38, 6-[[2,6-difluoro-4-(1-methylpyrazol-3-yl)phenyl]methyl]-N-[(3R,4S)-3-hydroxytetrahydropyran-4-yl]imidazo[1,2-a]pyridine-8-carboxamide]"
0.558 µM,58%,"Cn1ccc(-c2cc(F)c(Cc3cc(C(=O)N[C@H]4CCCC[C@@H]4O)c4nccn4c3)c(F)c2)n1 [compound 39, 6-[[2,6-difluoro-4-(1-methylpyrazol-3-yl)phenyl]methyl]-N-[(1S,2S)-2-hydroxycyclohexyl]imidazo[1,2-a]pyridine-8-carboxamide]"
